The subject of series [1] is patients with PAD, diabetes and inoperable ischemic foot ulcers. The series is described as follows: open-label study of safety and efficacy in patients with PAD, diabetes and inoperable ischemic foot ulcers. The class given is in vivo. On the procedure: The purpose of this open-label study is to evaluate the safety and efficacy of treprostinil sodium, a stable prostacyclin analogue, in ten patients with PAD, diabetes and inoperable ischemic foot ulcers.
Treprostinil sodium was administered as a continuous subcutaneous infusion beginning at 2.5 ng/Kg/Min and titrated to highest tolerated dose for 12 weeks. Patients were monitored for adverse events, wound healing, skin perfusion pressure and ischemic rest pain.

Series [2] relates to diabetics with non-healing wounds in critically ischemic lower extremities. The series is described as follows: case-controlled trial in diabetic patients with recalcitrant lower extremity wounds: peri-wound TcPO2 and laser Doppler. Format: in vivo, human. On the procedure:
A case-controlled trial examining the effects of treprostinil sodium (Remodulin®), by continuous subcutaneous infusion, was performed in diabetic patients with recalcitrant lower extremity wounds. The known vasodilator and platelet-aggregation inhibitor properties of treprostinil sodium warranted its evaluation as an adjuvant to wound healing in ischemic extremities. The primary endpoints were wound healing and limb salvage. Amongst the secondary endpoints were resting peri-wound transcutaneous oximetry (TcPO2) and laser Doppler analysis (LD) and the response of TcPO2 and LD to an oxygen challenge at ambient or elevated pressure. If treprostinil sodium reduces inflow resistance distal to the pre-capillary sphincter, the ΔpO2 between the hypoxic wound center and the inflow blood should increase both in magnitude and in the slope of that difference. This would be the physiologic basis for the augmentation of the hypoxic signal.
The seven enrolled patients were diabetics with non-healing wounds present (>3 months) in critically ischemic lower extremities (Fontaine Stage III-IV or Rutherford Stage 4, 5 or 6). The treprostinil sodium (Remodulin®) was given by continuous subcutaneous infusion for the study period of 6 weeks. Candidacy for hyperbaric oxygen treatment was an exclusion criterion (patient refusal, logistical constraints or a recently completed HBO2 course). […]

The subject of series [3] is diabetic neuropathy patients having at least one ulcer present on a foot. Put plainly: administration to humans with diabetic neuropathy suffering from foot ulcers. Particulars: continuous subcutaneous infusion, 2.5 ng/kg/min raised weekly to target dose, 12 weeks. The class given is in vivo. Here is the method:
Diabetic neuropathy patients having at least one ulcer (i.e., small sore or area of tissue gangrene) present on a foot are dosed with increasing amounts of Treprostinil over 12 weeks. The medication is delivered by a small pump that is connected to a catheter placed under the skin. In this manner, increasing dosages of Treprostinil are administered to patients by chronic continuous subcutaneous infusion.
Specifically, a 1.0 mg/mL formulation of Treprostinil sodium (REMODULIN®) is administered subcutaneously using a standard micro-infusion, positive-pressure infusion pump designed for subcutaneous drug delivery (Mini-Med). Patients receive an initial dose of 2.5 ng/kg/min of study drug. If, in a given patient, a dose of 2.5 ng/kg/min is not tolerated (e.g., persistent headache, nausea, emesis, restlessness, anxiety or severe pain at infusion site that cannot be adequately managed by medication or topical treatment), the dose is reduced to 1.25 ng/kg/min. Patients are maintained at 2.5 ng/kg/min (or 1.25 ng/kg/min if 2.5 ng/kg/min is not tolerated) during Week 1. After that, the dose is raised by 2.50 ng/kg/min each week until not tolerated or once a target dose is reached.
Dosing is increased weekly unless not tolerated by the patient. […] One example of a target dose is 15 ng/kg/min. The minimum dose is usually not less than 0.625 ng/kg/min. […]

In series [4] the test system is human pulmonary arterial smooth muscle cells. Particulars: Clapp et al. 2002; cited from earlier work.
The subject of series [5] is human alveolar macrophages. Particulars: Raychaudhuri et al. 2002; cited from earlier work.
Series [6] concerns patients with class III or class IV heart failure. To be noted: Patterson et al. 1995; cited from earlier work.
[7] abbreviates: of seven patients who completed the trial to-date, 12 weeks.

Structures are written as SMILES.

As for `CCCCC[C@H](O)CC[C@@H]1[C@H]2Cc3cccc(OCC(=O)O)c3C[C@H]2C[C@H]1O` [Treprostinil sodium], the “effect on ischemic rest pain, skin perfusion, and wound healing” value in series [1] (conclusion of the study) is on record as “positive effect”. The “increase in LD signals (thermal stimulation response)” value in series [2] (all patients with exception of one, on drug against before infusion) is 236%. Further, the “patients who demonstrated healing in wounds” value in series [2] (seven enrolled patients, continuous subcutaneous infusion for 6 weeks, wounds with mean healing arrest of 10.5 months) is reported as “All patients but one”.
For the molecule `CCCCC[C@H](O)CC[C@@H]1[C@H]2Cc3cccc(OCC(=O)O)c3C[C@H]2C[C@H]1O` [Treprostinil, 9-deoxy-2′,9-α-methano-3-oxa-4,5,6-trinor-3,7-(1′,3′-interphenylene)-13,14-dihydro-prostaglandin F1], the “serious adverse events attributed to treprostinil” value in series [1] (continuous subcutaneous infusion from 2.5 ng/Kg/Min titrated to highest tolerated dose, 12 weeks, seven patients completed) is recorded as “No serious adverse events”. Besides, in series [1] (continuous subcutaneous infusion, 12 weeks, seven patients completed), the “drug related side effect reported” value is listed as “mild to moderate infusion site pain”. Besides, in series [1] (setting [7]), the “patients who experienced complete healing” value is “Two”, the “patients who experienced complete resolution of rest pain” value is on record as “Five” and the “patients who experienced partial healing” value was “Two”. Also, in series [3], the “foot ulcers present before treatment” value was “reduction in the number, size and severity”; the “new foot ulcers associated with diabetic neuropathy” value is reported as “fewer new foot ulcers”. Also, in series [4], the “proliferation of human pulmonary arterial smooth muscle cells” value was “inhibits proliferation”. In addition, the “inflammatory cytokine (tumor necrosis factor-α, interleukin-1β, interleukin-6, GM-CSF) secretion and gene expression” value in series [5] is “inhibits”. Also, the vasodilator effects entry in series [6] is reported as “vasodilator effects”.
